Data: patent publication US6586592B2, “Bis-arylsulfones” (Pharmacia & Upjohn Company, priority 2000, dated 2003)
Structures can show the parent of a compound that is named as a salt.

Legend:
[1] = biological target: T1, cloned human 5-HT6 receptor (Homo sapiens, UniProt P50406); experiment: 5-HT6 receptor binding assay ([3H]-LSD radioligand, SPA beads); settings: membranes of Hela cells containing cloned human 5-HT6 receptor, IC50 converted to Ki by Cheng-Prusoff
T1 construct: membrane preparation
Method: 5-HT6 Receport Binding Assay
Growth of Cells and Membrane Preparation
Harvested intact cells are washed once in cold phosphate-buffered saline. The cells are pelleted and resuspended in 100 ml of cold 50 mM Tris, 5 mM EDTA and 5 mM EGTA, pH 7.4. Homogenization is with a Vir Tishear generator, 4 cycles for 30 seconds each at setting 50. The homogenized cells are centrifuged at 700 RPM (1000×g) for 10 minutes and the supernatant is removed. […] The rehomogenized cells are then centrifuged at 700 RPM (1000×g) for 10 minutes and the supernatant is removed. […] The membrane pellet is resupended in 50-8-ml of assay buffer containing HEPES 20 mM, MgCl2 10 mM, NaCl 150 mM, EDTA 1 mM, pH 7.4 and stored frozen in aliqouts at −70° C.
5-HT6 Receptor Binding Assay
The radioligand binding assay used [^3H]-lysergic acid diethylamide (LSD). The assay is carried out in Wallac 96-well sample plates by the addition of 11 μl of the test sample at the appropriate dilution (the assay employed 11 serial concentrations of samples run in duplicate), 11 μl of radioligand, and 178 μl of a washed mixture of WGA-coated SPA beads and membranes in binding buffer. The plates are shaken for about 5 minutes and then incubated at room temperature for 1 hour. The plates are then loaded into counting cassettes and counted in a Wallac MicroBeta Trilux scintillation counter.
Binding Constant (Ki) Determination
Eleven serial dilutions of test compounds are distributed to assay plates using the PE/Cetus Pro/Pette pipetter. These dilutions were, followed by radioligand and the bead-membrane mixture prepared as described above. The specifically bound cpm obtained are fit to a one-site binding model using GraphPad Prism ver. 2.0.

T1 sequence (P50406 whole entry): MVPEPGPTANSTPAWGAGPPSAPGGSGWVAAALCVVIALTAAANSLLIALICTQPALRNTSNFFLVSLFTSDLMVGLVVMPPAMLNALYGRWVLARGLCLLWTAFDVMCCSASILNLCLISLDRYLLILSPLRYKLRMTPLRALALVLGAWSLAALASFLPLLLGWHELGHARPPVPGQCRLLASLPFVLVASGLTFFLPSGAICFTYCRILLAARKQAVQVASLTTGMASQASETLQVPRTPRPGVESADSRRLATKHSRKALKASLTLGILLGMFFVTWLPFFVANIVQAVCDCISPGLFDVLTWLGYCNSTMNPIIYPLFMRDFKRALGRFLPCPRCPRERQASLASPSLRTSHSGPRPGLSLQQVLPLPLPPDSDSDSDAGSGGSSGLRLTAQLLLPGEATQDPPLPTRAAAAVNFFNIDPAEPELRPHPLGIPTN

| melting point | Ki [1] | Structure (SMILES) |
| --- | --- | --- |
| 153 to 154 °C |  | CNc1cc(N2CCCNCC2)ccc1S(=O)(=O)c1cccc(F)c1.Cl |
| 165 to 166 °C |  | Nc1cc(N2CCNCC2)ccc1S(=O)(=O)c1ccccc1 (as salt: salt) [Example 1, 2-(phenylsulfonyl)-5-(1-piperazinyl)phenylamine] |
|  | 2.6 nM | Nc1cc(N2CCNCC2)ccc1S(=O)(=O)c1ccccc1 [Example 1, 2-(phenylsulfonyl)-5-(1-piperazinyl)phenylamine] |
| 106 to 108 °C |  | Cl.Nc1cc(N2CCCNCC2)ccc1S(=O)(=O)c1cccc(F)c1 [Example 2, 5-(1,4-diazepan-1-yl)-2-[(3-fluorophenyl)sulfonyl]phenylamine] |
|  | 31 nM | Nc1cc(N2CCNCC2)ccc1S(=O)(=O)c1ccc(F)cc1 [Example 3, 2-[(4-fluorophenyl)sulfonyl]-5-(1-piperazinyl) Phenylamine] |
| 85 to 89 °C | 32 nM | CN1CCN(c2ccc(S(=O)(=O)c3ccc(F)cc3)c(N)c2)CC1.Cl [Example 4, 2-[(4-fluorophenyl)sulfonyl]-5-(4-methyl-1-piperazinyl) Phenylamine] |
| 102 to 106 °C | 23 nM | Cc1ccc(S(=O)(=O)c2ccc(N3CCNCC3)cc2N)cc1 [Example 5, 2-[(4-methylphenyl)sulfonyl]-5-(1-piperazinyl) Phenylamine] |
| 148 to 151 °C | 68 nM | Cc1ccc(S(=O)(=O)c2ccc(N3CCN(C)CC3)cc2N)cc1 [Example 6, 2-[(4-methylphenyl)sulfonyl]-5-(4-methyl-1-piperazinyl) Phenylamine] |
| 90 to 93 °C | 3.6 nM | CN1CCN(c2ccc(S(=O)(=O)c3ccccc3)c(N)c2)CC1.Cl [Example 7, 5-(4-methyl-1-piperazinyl)-2-(phenylsulfonyl) Phenylamine] |
| 89 to 92 °C | 5.2 nM | CN1CCN(c2ccc(S(=O)(=O)c3cccc(F)c3)c(N)c2)CC1.Cl [Example 8, 2-[(3-fluorophenyl)sulfonyl]-5-(4-methyl-1-piperazinyl) Phenylamine] |
|  | 79 nM | Nc1cc(N2CCCNCC2)ccc1S(=O)(=O)c1ccc(F)c(F)c1 [Example 9, 5-(1,4-diazepan-1-yl)-2-[(3,4-difluorophenyl)sulfonyl]phenylamine] |
|  | 11 nM | Nc1cc(N2CCCNCC2)ccc1S(=O)(=O)c1ccccc1 [Example 10, 5-(1,4-diazepan-1-yl)-2-(phenylsulfonyl) Phenylamine] |
|  | 11 nM | Nc1cc(N2CCCNCC2)ccc1S(=O)(=O)c1cc(F)cc(F)c1 [Example 11, 5-(1,4-diazepan-1-yl)-2-[(3,5-difluorophenyl)sulfonyl]phenylamine] |
| 121 to 123 °C |  | CCNc1cc(N2CCNCC2)ccc1S(=O)(=O)c1ccccc1.Cl [Example 13, N-ethyl-2-(phenylsulfonyl)-5-(1-piperazinyl) Phenylamine] |
